Among the data in patent US9776995B2, “Bicyclic sulfonamide compounds as sodium channel inhibitors” (AMGEN INC., priority 2013, dated 2017) are IC50 values, retold here.

What is called IC50 is the point on the concentration scale where inhibition reaches its midpoint. Read a high IC50 as weaker potency in that assay.

The structures appear in SMILES notation.

Chain of Nav 1.7 (Q15858 whole entry): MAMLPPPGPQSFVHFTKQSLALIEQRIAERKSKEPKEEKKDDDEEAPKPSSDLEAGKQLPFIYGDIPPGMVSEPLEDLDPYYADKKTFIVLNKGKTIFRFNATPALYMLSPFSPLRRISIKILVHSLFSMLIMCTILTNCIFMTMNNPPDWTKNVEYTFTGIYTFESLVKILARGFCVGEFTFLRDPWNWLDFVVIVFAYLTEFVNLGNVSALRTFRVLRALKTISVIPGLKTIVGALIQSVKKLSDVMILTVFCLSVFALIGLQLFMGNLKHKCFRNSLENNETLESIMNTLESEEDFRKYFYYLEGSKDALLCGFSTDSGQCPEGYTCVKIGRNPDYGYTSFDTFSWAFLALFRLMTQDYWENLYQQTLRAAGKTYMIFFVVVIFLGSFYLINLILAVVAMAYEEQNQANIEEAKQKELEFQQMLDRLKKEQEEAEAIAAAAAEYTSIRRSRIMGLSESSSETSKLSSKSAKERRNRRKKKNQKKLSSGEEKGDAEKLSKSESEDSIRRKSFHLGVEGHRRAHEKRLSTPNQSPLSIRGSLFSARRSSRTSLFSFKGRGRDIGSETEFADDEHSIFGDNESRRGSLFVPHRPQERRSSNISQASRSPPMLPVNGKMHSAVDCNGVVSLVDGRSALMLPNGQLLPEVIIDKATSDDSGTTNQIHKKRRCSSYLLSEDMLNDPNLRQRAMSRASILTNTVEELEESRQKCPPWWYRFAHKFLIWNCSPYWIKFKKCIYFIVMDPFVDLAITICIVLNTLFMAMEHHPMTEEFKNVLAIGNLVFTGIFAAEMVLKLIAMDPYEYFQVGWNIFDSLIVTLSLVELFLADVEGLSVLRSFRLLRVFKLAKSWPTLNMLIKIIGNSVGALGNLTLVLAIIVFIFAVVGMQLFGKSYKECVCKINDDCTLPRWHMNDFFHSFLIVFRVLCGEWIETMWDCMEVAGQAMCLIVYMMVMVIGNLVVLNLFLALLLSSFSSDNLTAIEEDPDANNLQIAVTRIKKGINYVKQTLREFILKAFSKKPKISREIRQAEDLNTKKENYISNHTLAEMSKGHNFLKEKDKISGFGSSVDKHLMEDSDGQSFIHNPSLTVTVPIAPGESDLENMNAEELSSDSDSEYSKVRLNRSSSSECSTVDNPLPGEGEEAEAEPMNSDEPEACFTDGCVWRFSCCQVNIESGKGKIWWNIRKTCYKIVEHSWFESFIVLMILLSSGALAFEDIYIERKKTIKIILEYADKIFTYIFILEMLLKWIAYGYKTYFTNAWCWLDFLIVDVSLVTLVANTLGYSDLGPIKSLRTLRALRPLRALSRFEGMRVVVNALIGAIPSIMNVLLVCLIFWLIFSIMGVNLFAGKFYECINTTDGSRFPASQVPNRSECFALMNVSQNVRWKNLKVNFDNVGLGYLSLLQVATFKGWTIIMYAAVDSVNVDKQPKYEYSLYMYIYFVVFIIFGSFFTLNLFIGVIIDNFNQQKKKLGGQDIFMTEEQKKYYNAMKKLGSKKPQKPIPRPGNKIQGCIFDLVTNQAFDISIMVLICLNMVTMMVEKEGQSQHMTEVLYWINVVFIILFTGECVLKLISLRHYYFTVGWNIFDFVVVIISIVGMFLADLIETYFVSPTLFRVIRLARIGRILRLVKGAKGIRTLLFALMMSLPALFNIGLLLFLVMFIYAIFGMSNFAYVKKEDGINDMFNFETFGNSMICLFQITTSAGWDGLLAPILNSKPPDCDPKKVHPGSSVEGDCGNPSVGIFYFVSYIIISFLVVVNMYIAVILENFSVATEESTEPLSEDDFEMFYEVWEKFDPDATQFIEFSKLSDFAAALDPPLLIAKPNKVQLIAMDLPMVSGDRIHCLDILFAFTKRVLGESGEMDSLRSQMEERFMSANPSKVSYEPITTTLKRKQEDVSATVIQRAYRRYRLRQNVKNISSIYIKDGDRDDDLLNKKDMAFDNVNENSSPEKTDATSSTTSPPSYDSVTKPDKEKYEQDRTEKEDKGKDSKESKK

The test addresses Nav 1.7 (Homo sapiens (Human), UniProt Q15858). Briefly: Nav 1.7 in vitro PX assay (PatchXpress whole cell voltage clamp).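 Also: holding potential set for 20 to 50% inactivation, sodium current evoked by a 20 ms step to −10 mV, peak current inhibition read after compound exposure, 3–5 cells per concentration.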 Particulars: HEK 293 cells stably transfected with human Nav1.7; PatchXpress; partially inactivated state. The test is classed as cell-based.
The molecule `COc1cc(-c2cc(F)cc(Cl)c2)c(F)cc1-c1cn(C)c(=O)c2cc(S(=O)(=O)Nc3ccon3)ccc12` [Example 453, 4-(3′-CHLORO-2,5′-DIFLUORO-5-METHOXY-[1,1′-BIPHENYL]-4-YL)-N-(ISOXAZOL-3-YL)-2-METHYL-1-OXO-1,2-DIHYDROISOQUINOLINE-7-SULFONAMIDE] registered an IC50 of 48 nM.

`COc1cc(-c2ccc(Cl)c(C)c2)c(F)cc1-c1cn(C)c(=O)c2cc(S(=O)(=O)Nc3ccon3)ccc12` [Example 454, 4-(4′-CHLORO-2-FLUORO-5-METHOXY-3′-METHYL-[1,1′-BIPHENYL]-4-YL)-N-(ISOXAZOL-3-YL)-2-METHYL-1-OXO-1,2-DIHYDROISOQUINOLINE-7-SULFONAMIDE] registered an IC50 of 51 nM. This IC50 and that of the molecule before are within 1.5-fold of each other. The molecule `COc1cc(-c2cccc(F)c2)c(Cl)cc1-c1ncnc2cc(S(=O)(=O)Nc3ccc(F)cn3)ccc12` [Example 479] returned a concentration for half-maximal inhibition (IC50) of 221 nM.

For `COc1cc(F)c(-c2ccc(F)nc2)cc1-c1nccc2cc(S(=O)(=O)Nc3ccon3)ccc12` [Example 497, 1-(4-fluoro-5-(6-fluoro-3-pyridinyl)-2-methoxyphenyl)-N-3-isoxazolyl-6-isoquinolinesulfonamide], the IC50 worked out at 479 nM. This IC50 is about 2.2-fold higher than that of the molecule before. `CCOc1ccc(-c2cc(OC)c(-c3ncnc4cc(S(=O)(=O)Nc5ccon5)ccc34)cc2F)cc1C` [Example 535, 4-(4′-ethoxy-2-fluoro-5-methoxy-3′-methyl-4-biphenylyl)-N-3-isoxazolyl-7-quinazolinesulfonamide] returned an IC50 of 610 nM. Regarding `COc1cc(-c2cc(C)cc(C)c2)c(F)cc1-c1ncnc2cc(S(=O)(=O)Nc3ccon3)ccc12` [Example 536, 4-(2-fluoro-5-methoxy-3′,5′-dimethyl-4-biphenylyl)-N-3-isoxazolyl-7-quinazolinesulfonamide], 51 nM corresponded to half-maximal inhibition (IC50).

Regarding `COc1cc(Cl)cc(-c2cc(OC)c(-c3ncnc4cc(S(=O)(=O)Nc5ccon5)ccc34)cc2F)c1` [Example 537, 4-(3′-chloro-2-fluoro-5,5′-dimethoxy-4-biphenylyl)-N-3-isoxazolyl-7-quinazolinesulfonamide], the IC50 is 36 nM. With `COc1cc(-c2cccc(Cl)c2)cc(F)c1-c1nccc2cc(S(=O)(=O)Nc3ccon3)ccc12` [Example 538, 1-(3′-chloro-3-fluoro-5-methoxy-4-biphenylyl)-N-3-isoxazolyl-6-isoquinolinesulfonamide], the IC50 stood at 298 nM. With `COc1cc(-c2ccc(C(F)(F)F)cc2)c(F)cc1-c1nccc2cc(S(=O)(=O)Nc3ccon3)ccc12` [Example 539, 1-(2-fluoro-5-methoxy-4′-(trifluoromethyl)-4-biphenylyl)-N-3-isoxazolyl-6-isoquinolinesulfonamide], the IC50 is 237 nM.

The molecule `COc1cc(-c2cccc(C(F)(F)F)c2)c(F)cc1-c1c2ccc(S(=O)(=O)Nc3ccon3)cc2cc(=O)n1C` [Example 546, 1-(2-fluoro-5-methoxy-3′-(trifluoromethyl)-4-biphenylyl)-N-3-isoxazolyl-2-methyl-3-oxo-2,3-dihydro-6-isoquinolinesulfonamide] gave an IC50 of 29 nM.

As for `COc1cc(-c2cc(F)cc(Cl)c2)c(F)cc1-c1[nH]c(=O)cc2cc(S(=O)(=O)Nc3ccon3)ccc12` [Example 547, 1-(3′-chloro-2,5′-difluoro-5-methoxy-4-biphenylyl)-N-3-isoxazolyl-3-oxo-2,3-dihydro-6-isoquinolinesulfonamide], half-maximal inhibition (IC50) was put at 20 nM. In turn, `COc1cc(-c2ccc(Cl)c(C)c2)c(F)cc1-c1[nH]c(=O)cc2cc(S(=O)(=O)Nc3ccon3)ccc12` [Example 548, 1-(4′-chloro-2-fluoro-5-methoxy-3′-methyl-4-biphenylyl)-N-3-isoxazolyl-3-oxo-2,3-dihydro-6-isoquinolinesulfonamide] showed an IC50 of 16 nM.

On to `COc1cc(-c2ccc(Cl)c(C)c2)c(F)cc1-c1c(=O)[nH]cc2cc(S(=O)(=O)Nc3ccon3)ccc12` [Example 549, 4-(4′-chloro-2-fluoro-5-methoxy-3′-methyl-4-biphenylyl)-N-3-isoxazolyl-3-oxo-2,3-dihydro-7-isoquinolinesulfonamide], for which the IC50 stood at 8 nM. The same measure for `COc1cc(-c2cc(F)cc(Cl)c2)c(F)cc1-c1c(=O)[nH]cc2cc(S(=O)(=O)Nc3ccon3)ccc12` [Example 550, 4-(3′-chloro-2,5′-difluoro-5-methoxy-4-biphenylyl)-N-3-isoxazolyl-3-oxo-2,3-dihydro-7-isoquinolinesulfonamide]: 6 nM. The same measure for `COc1cc(-c2cccc(F)c2)c(Cl)cc1-c1[nH]c(=O)cc2cc(S(=O)(=O)Nc3ncccn3)ccc12` [Example 553, 1-(2-chloro-3′-fluoro-5-methoxy-4-biphenylyl)-3-oxo-N-2-pyrimidinyl-2,3-dihydro-6-isoquinolinesulfonamide]: 45 nM; for `COc1cc(-c2ccc(F)c(C3CC3)c2)c(C)cc1-c1ncnc2cc(S(=O)(=O)Nc3ccon3)ccc12` [Example 554, 4-(3′-cyclopropyl-4′-fluoro-5-methoxy-2-methyl-4-biphenylyl)-N-3-isoxazolyl-7-quinazolinesulfonamide]: 34 nM; for `COc1cc(-c2cc(F)cc(C3CC3)c2)c(C)cc1-c1ncnc2cc(S(=O)(=O)Nc3ccon3)ccc12` [Example 555, 4-(3′-cyclopropyl-5′-fluoro-5-methoxy-2-methyl-4-biphenylyl)-N-3-isoxazolyl-7-quinazolinesulfonamide]: 61 nM. Regarding `COc1cc(-c2cc(C)ccc2F)c(C)cc1-c1ncnc2cc(S(=O)(=O)Nc3ccon3)ccc12` [Example 556, 4-(2′-fluoro-5-methoxy-2,5′-dimethyl-4-biphenylyl)-N-3-isoxazolyl-7-quinazolinesulfonamide], the IC50 is 113 nM. Compared with the last molecule, the IC50 is about 1.9-fold higher.

In turn, `COc1cc(-c2cc(Cl)ccc2F)c(C)cc1-c1ncnc2cc(S(=O)(=O)Nc3ccon3)ccc12` [Example 557, 4-(5′-chloro-2′-fluoro-5-methoxy-2-methyl-4-biphenylyl)-N-3-isoxazolyl-7-quinazolinesulfonamide] registered an IC50 of 56 nM. As to `COc1cc(-c2cc(Cl)ccc2C)c(C)cc1-c1ncnc2cc(S(=O)(=O)Nc3ccon3)ccc12` [Example 558, 4-(5′-chloro-5-methoxy-2,2′-dimethyl-4-biphenylyl)-N-3-isoxazolyl-7-quinazolinesulfonamide], the IC50 stood at 41 nM. In the case of `COc1cc(-c2cc(OC)c(-c3ncnc4cc(S(=O)(=O)Nc5ccon5)ccc34)cc2C)ccc1F` [Example 559, 4-(4′-fluoro-3′,5-dimethoxy-2-methyl-4-biphenylyl)-N-3-isoxazolyl-7-quinazolinesulfonamide] it was 57 nM; in that of `COc1cc(F)cc(-c2cc(OC)c(-c3ncnc4cc(S(=O)(=O)Nc5ccon5)ccc34)cc2C)c1` [Example 560, 4-(3′-fluoro-5,5′-dimethoxy-2-methyl-4-biphenylyl)-N-3-isoxazolyl-7-quinazolinesulfonamide], 35 nM; in that of `COc1ccc(F)c(-c2cc(OC)c(-c3ncnc4cc(S(=O)(=O)Nc5ccon5)ccc34)cc2C)c1` [Example 561, 4-(2′-fluoro-5,5′-dimethoxy-2-methyl-4-biphenylyl)-N-3-isoxazolyl-7-quinazolinesulfonamide], 89 nM.

The molecule `COc1cc(-c2cccc(F)c2F)c(C)cc1-c1ncnc2cc(S(=O)(=O)Nc3ccon3)ccc12` [Example 562, 4-(2′,3′-difluoro-5-methoxy-2-methyl-4-biphenylyl)-N-3-isoxazolyl-7-quinazolinesulfonamide] came in with an IC50 of 90 nM. This IC50 and that of the molecule before are within 1.5-fold of each other.
